From ChEMBL document CHEMBL3244159, “Ultraviolet photoelectron spectroscopy of cyclic amidines. 1. Electronic structure of some alpha-adrenergic benzylimidazolines” (J Med Chem, 1979)

What was measured:
[1] = species: Oryctolagus cuniculus; test: Binding affinity to alpha-adrenergic receptor in rabbit jejunum; assay type: tissue-based
[2] = molecular target: Adrenergic receptor alpha; test: Displacement of [3H]clonidine from alpha-adrenergic receptor in rat brain; assay type: tissue-based

With `c1ccc2c(CC3=NCCN3)cccc2c1` the pD2 [1] was 7.1.
In the case of `Cc1cc(C(C)(C)C)cc(C)c1CC1=NCCN1`, the pD2 [1] is reported as 7.1.
`c1ccc2c(c1)CCCC2C1=NCCN1` (stereo not given) [TETRAHYDROZOLINE] was tested, and the pD2 [1] was 6.5 and the Ki [2] was 11 nM.
In the case of `Cc1cc(C(C)(C)C)c(O)c(C)c1CC1=NCCN1`, the pD2 [1] is reported as 9.8.
